Experiment [1] relates to CV-1. The experiment can be described thus: Inhibition of RXRalpha transcriptional activity in african green monkey CV1 cells co-expressing with TREpal-tkCAT at 10 uM by reporter gene assay. It counts as cell-based. Particulars: Chlorocebus aethiops. In general terms: A reporter such as luciferase makes a cellular process visible.
For experiment [2], the system named is CV-1. The experiment can be described thus: Inhibition of RXRalpha transcriptional activity in african green monkey CV1 cells co-expressing with TREpal-tkCAT by reporter gene assay. It counts as cell-based. To be noted: Chlorocebus aethiops.

This passage reports Activity results from ChEMBL document CHEMBL1177755, “Bioactive xanthones from the stems of Cratoxylum formosum ssp. pruniflorum” (J Nat Prod, 2010).

Structures are written as SMILES. Calls of active or inactive are those of the source. The calls are words filed in the database; no cut-off is given here.

As for `CC(C)=CCC/C(C)=C/Cc1c(O)c(O)cc2c(=O)c3c(O)c(CC=C(C)C)c(O)cc3oc12`, the result in the experiment on CV-1 [1] was Active.

`CC(C)=CCC/C(C)=C/Cc1c(O)c(CC=C(C)C)c(O)c2c(=O)c3cc(O)c(O)cc3oc12`: in the experiment on CV-1 [1], the outcome was Active.

For the molecule `COc1cc2c(=O)c3c(O)cc(O)cc3oc2cc1O`, the outcome in the experiment with CV-1 [1] was Active.

As to `COc1c(O)ccc2oc3cccc(O)c3c(=O)c12`, the result in the experiment on CV-1 [1] was Active. In the experiment on CV-1 [2], the Activity entry is “Dose-dependent effect”.

For `COc1cc2oc3cc(O)c(O)c(CCC(C)(C)O)c3c(=O)c2c(O)c1CC=C(C)C`, the result in the experiment on CV-1 [1] was Active. Moreover, the Activity result with CV-1 [2] is “Dose-dependent effect”.

Take `CC(C)=CCc1c(O)c(CC=C(C)C)c2oc3cc(O)c(O)cc3c(=O)c2c1O`: the result with CV-1 [1] was Active.

As to `COc1ccc(O)c2c(=O)c3cc(O)ccc3oc12`, the result in the experiment on CV-1 [1] was Active.

In the case of `COc1cc2oc3cc(O)c(O)c(C/C=C(\C)CCC=C(C)C)c3c(=O)c2c(O)c1C/C=C(\C)CCC=C(C)C`, in the experiment on CV-1 [1], the outcome was Active.

Turning to `COc1c(O)ccc2oc3c(O)ccc(O)c3c(=O)c12`, the outcome in the experiment on CV-1 [1] was Active. Further, the Activity entry in the experiment with CV-1 [2] was “Dose-dependent effect”.
